Among the data in patent US7674899B2, “Dimeric azacyclic compounds and their use” (Neurosearch A/S, priority 2004, dated 2010) are IC50 values, retold here.

This assay addresses T1, α7-subtype of nicotinic receptors (Rattus norvegicus, UniProt Q05941).
T1 construct: Cerebral cortices from male Wistar rats (150-250 g) are homogenised; from tissue; host or cells: rat cerebral cortex membrane homogenate
The assay is described as follows: In vitro inhibition of 3H-α-bungarotoxine binding in rat brain. The settings on record: rat cerebral cortex homogenate; 2 nM 3H-α-bungarotoxine; 2 hours at 37° C.

SMILES strings stand for the structures. Structures can show the parent of a compound that is named as a salt.

T1 sequence (Q05941 23-502): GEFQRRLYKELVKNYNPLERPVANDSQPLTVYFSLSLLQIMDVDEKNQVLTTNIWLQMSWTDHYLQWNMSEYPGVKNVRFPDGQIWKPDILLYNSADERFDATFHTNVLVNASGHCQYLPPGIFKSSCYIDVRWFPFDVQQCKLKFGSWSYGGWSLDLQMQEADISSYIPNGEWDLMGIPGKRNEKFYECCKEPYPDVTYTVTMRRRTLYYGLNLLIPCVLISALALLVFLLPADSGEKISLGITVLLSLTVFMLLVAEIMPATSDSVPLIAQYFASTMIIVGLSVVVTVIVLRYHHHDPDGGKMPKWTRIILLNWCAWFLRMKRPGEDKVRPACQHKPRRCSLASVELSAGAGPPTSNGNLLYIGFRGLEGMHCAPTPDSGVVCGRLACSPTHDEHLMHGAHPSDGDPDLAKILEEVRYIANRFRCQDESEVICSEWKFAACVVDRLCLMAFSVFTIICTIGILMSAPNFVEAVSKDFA

The IC50 is the concentration that inhibits the measured activity by half. A higher IC50 goes with weaker potency. In turn, `c1nc(OC2CN3CCC2CC3)sc1-c1cnc(OC2CN3CCC2CC3)s1` (racemic) [Compound A1, 2,2′-Bis-((±)-1-aza-bicyclo[2.2.2]oct-3-yloxy)-[5,5′]-bithiazolyl fumaric acid salt] registered an IC50 of 200 nM.
